Results: patent publication US20250002608A1, “TREATMENT OF PAIN” (UTI Limited Partnership, priority 2021, published 2025)

Experiments:
ALK [1] = settings: human, in vivo; cited from earlier work
small DRG neurons = assay: Excitability of small DRG neurons exposed to ALKAL2 (current clamp); assay type: cell-based, mouse; settings: for resting membrane potential (RMP): small DRG neurons, n=13
Method: DRG neurons were harvested from adult mice and enzymatically dissociated in Hank's balanced salt solution (HBSS) containing 2 mg/ml collagenase type I and 4 mg/ml dispase (Invitrogen) for 45 min at 37° C. […] Electrophysiological recordings were conducted using an external solution containing (in mM): 140.0 NaCl, 1.5 CaCl2, 2.0 MgCl2, 5.0 KCl, 10.0 HEPES, 10.0 D-glucose, pH 7.4 adjusted with NaOH, on the stage of an inverted epi-fluorescence microscope (Olympus IX51). DRG neuron were recorded based on size, knowing that TRPV1 is expressed in small neurons […], and pHluorin fluorescent signal. Action potentials were recorded using current clamp. Borosilicate glass (Harvard Apparatus Ltd.) pipettes were pulled and polished to 2-5 MQ resistance with a DMZ-Universal Puller (Zeitz-Instruments GmbH.) and filled with an internal solution containing (in mM): 140.0 KCl, 5.00 NaCl, 1 CaCl2, 1.0 EGTA, 10.0 HEPES, 1.0 MgCl2, 3.0 ATP Na2, pH 7.3 adjusted with KOH. All solutions were prepared and used at room temperature (22±2° C.) and their osmolarity adjusted to 310 mOsm. […] Recordings were performed using an Axopatch 200B amplifier (Axon Instruments, Foster City, CA, USA). Current-clamp protocols were applied using pClamp 10.4 software (Axon Instruments). […] Average DRG neuron capacitance was 12.45±0.85 pF. […] For prolonged ALKAL2 treatment, neurons were incubated with a low concentration of 10 nM for 16 hours.

[2] = system: small (<20 μm) DRG neurons; assay: Neurite outgrowth of DRG neurons co-cultured with ALKAL2-transfected HEK cells; assay type: cell-based, mouse
From the text: Previous work has shown that the ALK receptor plays a central role in the development of neural-crest derived cells and neurite outgrowth (18, 19, 37, 38). Using a co-culture system, we tested whether secreted ALKAL2 is able to activate ALK on DRG neurons, thus promoting neurite outgrowth through an autocrine/paracrine signaling process. In this assay, HEK cell monolayers seeded in the upper chamber of a transwell were transfected with ALKAL2, and then placed above acutely dissociated DRG neurons seeded into the lower chamber (FIG. 4A). DRG neurons were exposed to HEK-secreted ALKAL2 for a further 16 hours, after which, neurite growth was assessed on small and medium size neurons (FIG. 4A).
DRG neurons were harvested from adult mice and enzymatically dissociated in Hank's balanced salt solution (HBSS) containing 2 mg/ml collagenase type I and 4 mg/ml dispase (Invitrogen) for 45 min at 37° C. DRGs were rinsed twice in HBSS and once in Neurobasal A culture medium (Thermo Fisher Scientific) supplemented with 2% B-27, 10% heat-inactivated fetal bovine serum (HI-FBS), 100 μg/ml streptomycin, 100 U/ml penicillin, 100 ng/ml of Nerve Growth Factor (NGF) and 100 ng/ml glial cell-derived neurotrophic factor (GDNF) (all from Invitrogen). Individual neurons were dispersed by trituration through a fire-polished glass Pasteur pipette in 4 ml media and cultured overnight at 37° C. with 5% CO2 in 96% humidity on glass coverslips previously treated with 25% Poly-Ornithine and Laminin (both from Sigma).
For co-culture experiments, human embryonic kidney (HEK) 293 tsA-201 cells were grown to 80% confluence at 37° C. (5% CO2) in Dulbecco's modified Eagle's medium (+10% fetal bovine serum, 200 units/ml penicillin and 0.2 mg/ml streptomycin (Invitrogen, Carlsbad, CA, USA)) in the transwell of a 12-well cell culture plate (Gibco). Cells were transfected with 0.5 or 1 μg of ALKAL2 plasmid (Genomics, ABIN3292379) using the calcium phosphate method and washed 12 hours after transfection. After another 8 hours, isolated DRG neurons plated on glass coverslips were placed in the bottom chamber of the 12-well plate and the media was changed to Neurobasal A culture medium (see above). Electrophysiological recordings or immunohistochemistry were conducted 24 hours later.
For the neurite outgrowth assay, cultured DRG neurons were either treated with increasing concentrations ([…], 1 nM, 10 nM, 100 nM and 1 μM) of recombinant mouse ALKAL2 (MyBioSource LLC, MBS14253) or co-cultured with ALKAL2 expressing HEK cells (see above) in Neurobasal A medium. After 24 h, the cells were washed twice with HBSS, fixed in 4% PFA for 15 min., incubated in blocking solution (PBS+1% BSA) for 30 min. and then immunostained with anti-β-tubulin III antibody (rabbit, 1/1000, Sigma-Aldrich) overnight at 4° C. Cells were washed in PBS twice then incubated with a goat-anti rabbit IgG conjugated to Alexa Fluor 488 (1/2000, Invitrogen) for 1 h. After several washes, coverslips were mounted on slides and confocal images acquired. Alexa-488 antibody was visualized by excitation with an argon laser […] and emission detected using a long-pass 530 nm filter. Alexa-555 antibody was visualized by excitation at 543 nm with a HeNe laser, and emission detected using a 585-615 nm band-pass filter.

TRPV1-pHluorin [3] = assay: Capsaicin-evoked TRPV1 current (I-V ramp) in HEK cells transfected with TRPV1-pHluorin; assay type: cell-based; settings: capsaicin 100 nM
TRPV1 wild type = biological target: T1, TRPV1 wild type (Homo sapiens, UniProt Q8NER1); assay: Capsaicin-evoked TRPV1 current (I-V ramp) in HEK cells transfected with TRPV1 wild type; assay type: cell-based; settings: capsaicin 100 nM, TRPV1 WT
T1 construct: expressed in transfected cells; host or cells: HEK cells
T1 sequence (Q8NER1 whole entry, species assumed): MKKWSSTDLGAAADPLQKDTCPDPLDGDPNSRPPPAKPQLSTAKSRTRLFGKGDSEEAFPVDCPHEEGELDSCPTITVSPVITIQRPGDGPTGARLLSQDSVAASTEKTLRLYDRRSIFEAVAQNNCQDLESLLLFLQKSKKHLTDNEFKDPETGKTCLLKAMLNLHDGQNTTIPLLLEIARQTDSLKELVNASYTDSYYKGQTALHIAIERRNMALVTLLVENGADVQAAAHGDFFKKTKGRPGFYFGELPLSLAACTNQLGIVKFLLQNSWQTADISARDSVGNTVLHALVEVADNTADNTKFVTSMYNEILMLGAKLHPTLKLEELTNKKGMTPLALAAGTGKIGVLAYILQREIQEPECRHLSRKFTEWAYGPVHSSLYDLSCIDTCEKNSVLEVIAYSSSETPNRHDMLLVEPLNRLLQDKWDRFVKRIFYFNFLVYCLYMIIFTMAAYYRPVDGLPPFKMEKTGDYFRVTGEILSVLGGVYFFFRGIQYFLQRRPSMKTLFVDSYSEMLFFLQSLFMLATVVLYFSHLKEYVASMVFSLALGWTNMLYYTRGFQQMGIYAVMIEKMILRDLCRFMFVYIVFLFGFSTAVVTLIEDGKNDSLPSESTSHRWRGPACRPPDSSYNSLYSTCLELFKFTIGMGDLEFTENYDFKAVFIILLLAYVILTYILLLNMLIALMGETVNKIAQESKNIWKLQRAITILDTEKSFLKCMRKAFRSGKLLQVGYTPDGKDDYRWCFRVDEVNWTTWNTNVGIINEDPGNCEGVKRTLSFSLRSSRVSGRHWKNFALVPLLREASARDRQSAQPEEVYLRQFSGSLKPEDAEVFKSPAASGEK

TRPV1-pHluorin [4] = biological target: T2, TRPV1-pHluorin (Mus musculus, UniProt Q704Y3); assay: Capsaicin dose-response by calcium imaging on DRG neurons from TRPV1-pHluorin mice; assay type: cell-based; settings: read-out: EC50 of dose-response curve evoked by capsaicin, room temperature (22° C.), n=28
T2 construct: fused on or other part: superecliptic pHluorin (ecliptic GFP, EcGFP) inserted into the extracellular turret between His and Lys (615/616; H614/K615 elsewhere in the source)
T2 sequence (Q704Y3 1-615 limits assumed): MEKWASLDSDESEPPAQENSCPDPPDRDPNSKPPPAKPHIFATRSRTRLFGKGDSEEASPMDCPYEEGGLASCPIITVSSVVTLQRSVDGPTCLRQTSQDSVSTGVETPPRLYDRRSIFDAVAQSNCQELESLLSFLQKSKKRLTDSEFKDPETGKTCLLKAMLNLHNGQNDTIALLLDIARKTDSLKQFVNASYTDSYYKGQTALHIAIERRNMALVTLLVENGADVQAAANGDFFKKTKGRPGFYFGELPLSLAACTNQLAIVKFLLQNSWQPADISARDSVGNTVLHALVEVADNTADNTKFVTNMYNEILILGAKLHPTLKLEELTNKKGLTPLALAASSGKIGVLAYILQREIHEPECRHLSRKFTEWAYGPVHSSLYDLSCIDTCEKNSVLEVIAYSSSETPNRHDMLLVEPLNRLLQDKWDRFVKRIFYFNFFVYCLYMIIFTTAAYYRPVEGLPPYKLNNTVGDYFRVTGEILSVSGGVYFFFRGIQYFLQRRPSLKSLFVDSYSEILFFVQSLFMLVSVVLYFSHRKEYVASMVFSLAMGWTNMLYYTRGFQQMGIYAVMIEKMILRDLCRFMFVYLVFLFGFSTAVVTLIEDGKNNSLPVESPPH
T2 sequence (Q704Y3 616-839 limits assumed): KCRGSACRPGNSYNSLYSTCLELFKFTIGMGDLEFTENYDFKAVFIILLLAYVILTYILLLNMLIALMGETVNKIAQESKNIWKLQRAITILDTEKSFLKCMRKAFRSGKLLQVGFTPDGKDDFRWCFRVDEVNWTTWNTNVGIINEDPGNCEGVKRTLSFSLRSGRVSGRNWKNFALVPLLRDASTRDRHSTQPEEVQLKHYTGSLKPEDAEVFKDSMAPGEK

DRG neurons from WT mice = assay: Current-clamp recording of DRG neurons from WT mice exposed to capsaicin; assay type: cell-based, mouse; settings: capsaicin 100 nM
Method: (§1) DRG neurons were harvested from adult mice and enzymatically dissociated in Hank's balanced salt solution (HBSS) containing 2 mg/ml collagenase type I and 4 mg/ml dispase (Invitrogen) for 45 min at 37° C. […] Electrophysiological recordings were conducted using an external solution containing (in mM): 140.0 NaCl, 1.5 CaCl2, 2.0 MgCl2, 5.0 KCl, 10.0 HEPES, 10.0 D-glucose, pH 7.4 adjusted with NaOH, on the stage of an inverted epi-fluorescence microscope (Olympus IX51). DRG neuron were recorded based on size, knowing that TRPV1 is expressed in small neurons […], and pHluorin fluorescent signal. Action potentials were recorded using current clamp. Borosilicate glass (Harvard Apparatus Ltd.) pipettes were pulled and polished to 2-5 MQ resistance with a DMZ-Universal Puller (Zeitz-Instruments GmbH.) and filled with an internal solution containing (in mM): 140.0 KCl, 5.00 NaCl, 1 CaCl2, 1.0 EGTA, 10.0 HEPES, 1.0 MgCl2, 3.0 ATP Na2, pH 7.3 adjusted with KOH. All solutions were prepared and used at room temperature (22±2° C.) and their osmolarity adjusted to 310 mOsm. […] Recordings were performed using an Axopatch 200B amplifier (Axon Instruments, Foster City, CA, USA). Current-clamp protocols were applied using pClamp 10.4 software (Axon Instruments). […] Average DRG neuron capacitance was 12.45±0.85 pF. […]

[5] = system: DRG neurons from TRPV1-pHluorin mice; assay: Current-clamp recording of DRG neurons from TRPV1-pHluorin mice exposed to capsaicin; assay type: cell-based, mouse; settings: capsaicin 100 nM
Method: as §1

[6] = biological target: anaplastic lymphoma kinase (ALK) receptor, endogenous on mouse DRG neurons and in the mouse spinal dorsal horn (mouse) (UniProt P97793); assay: cell-based or functional assay
Chain of anaplastic lymphoma kinase (ALK) receptor, endogenous on mouse DRG neurons and in the mouse spinal dorsal horn (mouse) (P97793 19-1621): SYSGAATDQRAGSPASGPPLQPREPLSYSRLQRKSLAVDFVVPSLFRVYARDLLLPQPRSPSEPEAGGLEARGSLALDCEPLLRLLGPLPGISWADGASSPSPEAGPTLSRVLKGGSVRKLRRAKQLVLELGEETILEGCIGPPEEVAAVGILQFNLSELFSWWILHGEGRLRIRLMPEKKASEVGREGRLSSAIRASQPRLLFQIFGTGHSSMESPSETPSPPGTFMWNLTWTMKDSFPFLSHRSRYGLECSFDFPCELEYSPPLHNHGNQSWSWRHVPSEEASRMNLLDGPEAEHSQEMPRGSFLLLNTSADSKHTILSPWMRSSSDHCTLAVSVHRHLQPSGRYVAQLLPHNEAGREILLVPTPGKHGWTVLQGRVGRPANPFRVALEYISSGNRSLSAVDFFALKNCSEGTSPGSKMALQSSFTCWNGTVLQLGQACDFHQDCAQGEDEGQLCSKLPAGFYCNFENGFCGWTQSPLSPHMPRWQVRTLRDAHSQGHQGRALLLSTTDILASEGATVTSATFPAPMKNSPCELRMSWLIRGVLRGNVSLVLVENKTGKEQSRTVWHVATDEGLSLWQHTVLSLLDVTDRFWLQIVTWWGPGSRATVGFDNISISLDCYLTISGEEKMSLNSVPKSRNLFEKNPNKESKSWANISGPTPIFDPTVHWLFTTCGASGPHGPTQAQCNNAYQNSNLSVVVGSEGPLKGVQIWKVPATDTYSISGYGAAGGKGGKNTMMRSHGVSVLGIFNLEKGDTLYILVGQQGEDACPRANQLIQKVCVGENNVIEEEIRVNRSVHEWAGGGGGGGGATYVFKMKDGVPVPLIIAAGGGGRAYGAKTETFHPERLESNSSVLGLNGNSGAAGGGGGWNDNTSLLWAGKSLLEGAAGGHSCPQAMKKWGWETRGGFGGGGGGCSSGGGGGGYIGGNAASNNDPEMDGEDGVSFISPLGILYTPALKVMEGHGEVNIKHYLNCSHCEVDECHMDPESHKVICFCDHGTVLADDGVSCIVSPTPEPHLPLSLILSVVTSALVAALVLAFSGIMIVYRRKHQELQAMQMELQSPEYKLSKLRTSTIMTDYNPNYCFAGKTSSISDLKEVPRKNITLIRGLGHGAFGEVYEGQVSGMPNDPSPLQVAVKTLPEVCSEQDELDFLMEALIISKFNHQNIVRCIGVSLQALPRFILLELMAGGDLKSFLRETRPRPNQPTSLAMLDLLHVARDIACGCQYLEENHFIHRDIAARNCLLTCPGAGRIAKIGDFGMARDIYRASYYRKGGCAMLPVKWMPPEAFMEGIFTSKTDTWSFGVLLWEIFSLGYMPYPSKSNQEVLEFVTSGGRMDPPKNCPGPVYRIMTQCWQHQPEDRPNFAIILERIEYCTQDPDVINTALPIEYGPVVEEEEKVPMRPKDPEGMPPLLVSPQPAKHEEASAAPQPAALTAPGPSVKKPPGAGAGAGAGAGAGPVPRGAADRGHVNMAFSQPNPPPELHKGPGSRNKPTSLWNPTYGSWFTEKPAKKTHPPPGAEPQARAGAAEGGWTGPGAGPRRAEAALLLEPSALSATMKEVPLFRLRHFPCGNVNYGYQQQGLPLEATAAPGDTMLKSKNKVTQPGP

ALK [7] = biological target: T3, ALK (Mus musculus, UniProt P97793); assay: pALK immunostaining in the spinal dorsal horn after intrathecal ALKAL2; assay type: in vivo; settings: 30 min following intrathecal ALKAL2 injection
T3 construct: from tissue; host or cells: living mice, spinal dorsal horn
T3 sequence (P97793 19-1621): as above
Method: (§2) Intrathecal injections were performed in conscious mice. Briefly, mice were manually restrained, the dorsal fur of each mouse was shaved, the spinal column was arched, and a 30-gauge needle attached in a PE20 Polyethylene tube to a 25 μl Hamilton micro syringe (Hamilton, Birmingham, UK) was inserted into the subarachnoid space between the L4 and L5 vertebrae. Accurate positioning of the needle tip was confirmed by a characteristic tail-flick response of animal when the needle if correctly positioned. Intrathecal injections of 10 μl were delivered over a period of 5 seconds.

ALK [8] = biological target: T3, ALK; assay: Thermal hyperalgesia induced by intrathecal ALKAL2; assay type: in vivo
Method: as §2
Three trials for each mouse were performed.

[9] = ALKAL2 co-culture in the presence of Lorlatinib 1 μM
[10] = ALKAL2 plasmid co-culture 16 h, small DRG neurons
[11] = ALKAL2 transfected condition vs control

## Cc1cc(Nc2ncc(Cl)c(Nc3ccccc3S(=O)(=O)C(C)C)n2)c(OC(C)C)cc1C1CCNCC1 [Ceritinib]
ALK [1]
  effect on pain in NSCL cancer patients: could reduce chest, arm and shoulder pain

## C[C@H]1Oc2cc(cnc2N)-c2c(nn(C)c2C#N)CN(C)C(=O)c2ccc(F)cc21 [Lorlatinib]
Small DRG neurons; ALKAL2+Lorlatinib group, n=9
  action potential (AP) threshold: −31.59±1.76 mV
Small DRG neurons; ALKAL2+Lorlatinib group
  resting membrane potential (RMP): −54.5±1.53 mV
[2]; [9]
  neurites per neuron: 8.7±1.9
  number of branch points per neuron: 3.6±0.5
  total neurite length per neuron: 83±8.8 μm

## COc1cc(CNC(=O)CCCC/C=C/C(C)C)ccc1O [capsaicin]
TRPV1-pHluorin [3]
  peak inward current at −100 mV: −7.33±2.91 pA/pF
  peak outward current at +100 mV: 61.36±11.97 pA/pF
TRPV1 wild type
  peak inward current at −100 mV: −10.2±1.63 pA/pF
  peak outward current at +100 mV: 62.82±11.72 pA/pF
TRPV1-pHluorin [4]
  EC50: 1060 ± 90 nM
DRG neurons from WT mice
  resting membrane potential after application of capsaicin: −36.61±1.83 mV
DRG neurons from WT mice; 400 pA current injection
  AP frequency after capsaicin: 18.56±2.44 Hz
[5]
  resting membrane potential after application of capsaicin: −38.01±2.17 mV
[5]; 400 pA current injection
  AP frequency after capsaicin: 17.22±0.84 Hz

B1: ALKAL2 secreted by HEK 293 tsA-201 cells transfected with ALKAL2 plasmid (Genomics, ABIN3292379) (ligand, UniProt Q6UX46 25-152, looked up, species assumed)
ALK and LTK ligand 2: GAEPREPADGQALLRLVVELVQELRKHHSAEHKGLQLLGRDCALGRAEAAGLGPSPEQRVEIVPRDLRMKDKFLKHLTGPLYFSPKCSKHFHRLYHNTRDCTIPAYYKRCARLLTRLAVSPVCMEDKQ
[6]
  total neurite length per neuron: 267 µm
  total neurite length per neuron, transwell co-culture: 5 fold
  total neurites in small (<20 µm) DRG neurons (neurites per neuron): 18.6

B2: ALKAL2: ligand of the ALK receptor; recombinant mouse ALKAL2 or secreted by HEK cells transfected with ALKAL2 plasmid (protein)
chain: QSRGPADRQTLLRLLVELVQELKKFHIGDSKRLQLLGESDFALGRREATDYGADQEEQRVEIVPRDLRMKDKFLKHLTGPLYFSPKCSKHFHRLYHNTRDCTIPAYYKRCARLLTRLAVSPMCMER
Small DRG neurons; ALKAL2 group, n=11
  action potential (AP) threshold: −40.57±2.88 mV
Small DRG neurons; ALKAL2 group
  resting membrane potential (RMP): −55.15±2.21 mV
Small DRG neurons; recombinant ALKAL2 for 16 h (10 nM)
  AP frequency evoked by ascending steps of injected current: pronounced increase
[2]; [10]
  number of branch points per neuron: 8.9±0.9
  total neurite length per neuron: 267.1±2.2 μm
  total neurites per neuron: 18.6±1.2
[2]; [11]
  increase in the total neurite length per neuron: five-fold increase
  increase in the total number of neurites (primary and secondary branches) and branching points: two-fold increase
ALK [7]
  pALK in the spinal dorsal horn: increase in pALK
ALK [8]; intrathecal ALKAL2, n=5 each group
  time after administration at which thermal hypersensitivity is back to baseline: 72 h
ALK [8]; recombinant ALKAL2 intrathecal, 0.01, 0.1, 1 uM
  thermal hyperalgesia in naïve mice: induced thermal hyperalgesia lasting several hours in a dose-dependent manner
